Measured values taken from US11998606B2, “Compounds and methods for selective proteolysis of glucocorticoid receptors” (Board of Regents, The University of Texas System, priority 2018, dated 2024).
Several values for one entry are separate records, joined by “and”; a condition that tells them apart may be missing. Equal values may be shown once. Read-outs that look alike come from different tables or passages of the source.

Key:
PC3 cells = assay: PC3 cell line clonogenic (colony formation) assay; assay type: cell-based; settings: 3.3 μM or 10 μM, 10-14 days, versus DMSO control
Experimental: PC3 cells are routinely maintained in RPMI 1640 media. Cell growth is determined using crystal violet staining. Cells are initially seeded at density of 1000 to 2000 cells per well in 6-well plates. 24 hours post-seeding, cells are treated with DMSO control, enzalutamide, RU-486 or various GR degraders at 3.3 μM or 10 μM concentration. Cells are allowed to grow under regular growth conditions for 10-14 days. Cells are then fixed with 80% MeOH and stained with crystal violet solution (0.05%) overnight. Plates are then washed in water, dried and scanned.

[1] = Single dose intraperitoneal pharmacokinetics in CD-1 mice, plasma concentration by HPLC-MS; assay type: in vivo
Experimental: The intraperitoneal bioavailability was determined in the following study: three CD-1 female mice were dosed by intraperitoneal injection (10 mg/kg) and plasma collected at the following hourly time points (0.083, 0.25, 0.5, 1, 2, […] and 24h). Plasma concentration was determined by HPLC-MS.
Table 1 illustrates pharmacokinetic properties of the Example 3 compound in CD-1 mice (n=3) after a single intraperitoneal dose of 10 mg/kg.

DU145 cells = assay: DU145 cell line proliferation assay (Incucyte confluency); assay type: cell-based; settings: 1 μM, 3.3 μM or 10 μM, 5 days, versus DMSO control
Experimental: DU145 cells are routinely maintained in RPMI 1640 media. Proliferation is determined using a real time cell imaging device, Incucyte. Cells are initially seeded at density of 2000 cells per well in 96-well plates. 24 hours post-seeding, cells are treated with DMSO control or GR degraders at 1 μM, 3.3 μM or 10 μM concentration. Cells are allowed to grow under regular growth conditions for 5 days while being monitored and imaged every four hours by Incucyte. Confluency of cells, a surrogate for proliferation, is calculated and plotted.

[2] = Single dose intraperitoneal pharmacokinetics in CD-1 mice, plasma concentration by HPLC-MS; assay type: in vivo; settings: 10 mg/kg IP
[3] = tested on: VCaP prostate cancer cells; assay: In vivo anti-tumor efficacy, VCaP castration resistant prostate cancer xenograft model; design: species or system Male CB17 SCID Mice; settings: castrated CB17 SCID mice, Example 3 100 mg/kg + enzalutamide 10 mg/kg IP once daily
Experimental: 1×10^7 VCaP cells were injected into the flanks of male CB17 SCID Mice. Tumor take was monitored visually and by palpation bi-weekly. Once tumors reached 200 mm^3 mice were castrated. Once tumors stopped shrinking, mice were randomized into control and different treatment groups for 26 days. Treatment cohorts are as follows: • a. Vehicle is 5% Cremophor: 5% Ethanol in saline, (n=10 animals) • b. GR degrader example #3 (100 mg/kg) IP once daily in 5% Cremophor: 5% Ethanol in saline (n=10 animals) • c. Enzalutamide (10 mg/kg) IP once daily in 5% Cremophor: 5% Ethanol in saline (n=10 animals) • d. GR degrader example #3 (100 mg/kg)+Enzalutamide (10 mg/kg) IP once daily in 5% Cremophor: 5% Ethanol in saline (n=10 animals)
Tumor diameter and volume were calculated based on caliper measurements of tumor length and […] using the formula tumor volume=(length×width^2)/2. Tumor volume and body weight were measured three times a week.

[4] = tested on: TRAMP-C1 prostate cancer cells; assay: In vivo anti-tumor efficacy, TRAMP-C1 tumors in immunocompetent mice; design: species or system male C57/Bl6 mice; settings: C57/Bl6 mice, Example 3 100 mg/kg + anti-PD1 antibody 200 μg IP once daily, 7 days
Experimental: TRAMP-C1 cells (5×10^6) were injected into the flanks of male C57/Bl6 mice. Tumor take was monitored visually and by palpation bi-weekly. Once tumors reached 200 mm^3 mice were randomized into control and different treatment groups for 7 days. Treatment cohorts are as follows: • a. Vehicle is 5% Cremophor: 5% Ethanol in saline, (n=10 animals) • b. GR degrader Example #3 (100 mg/kg) IP once daily in 5% Cremophor: 5% Ethanol in saline (n=10 animals) • c. Anti-PD1 antibody, clone RMP1-14 (200 μg) IP once daily in 5% Cremophor: 5% Ethanol in saline (n=10 animals) • d. GR degrader Example #3 (100 mg/kg)+Anti-PD1 antibody (200 μg) IP once daily in 5% Cremophor: 5% Ethanol in saline (n=10 animals)
Tumor diameter and volume were calculated based on caliper measurements of tumor length and […] using the formula tumor volume=(length×width^2)/2. Tumor volume and body weight were measured three times.

[5] = female, mouse, ip, CD-1 mice (n=3), single intraperitoneal dose of 10 mg/kg

In the case of CC#C[C@]1(O)CC[C@H]2[C@@H]3CCC4=CC(=O)CCC4=C3[C@@H](c3ccc(N(C)CCCC(=O)N4CCN(C(=O)OC(C)(C)C)CC4C(=O)N4CCN(C(=O)OC(C)(C)C)CC4C(=O)NCCCOCCOCCOCCCNc4cccc5c4C(=O)N(C4CCC(=O)NC4=O)C5=O)cc3)C[C@@]21C (stereo partly drawn) [Example 3, tert-Butyl-4-(4-(tert-butoxycarbonyl)-1-(4-((4-((8S,11R,13S,14S,17S)-17-hydroxy-13-methyl-3-oxo-17-(prop-1-yn-1-yl)-2,3,6,7,8,11,12,13,14,15,16,17-dodecahydro-1H-cyclopenta[a]phenanthren-11-yl)phenyl)(methyl)amino)butanoyl)piperazine-2-carbonyl)-3-((3-(2-(2-(3-((2-(2,6-dioxopiperidin-3-yl)-1,3-dioxoisoindolin-4-yl)amino)-propoxy)ethoxy)ethoxy)propyl)carbamoyl)piperazine-1-carboxylate], the “Colony formation (crystal violet staining)” value (PC3 cells) is reported as “inhibited colony formation”, the concentration at 0.5 h ([1]; 0.083 hr, 10 mg/kg IP, CD-1 mice, individual animals, 10 mg/kg, read-out: Individual concentration) is reported as 72.2 nM and 135 nM and the concentration at 0.5 h ([1]; 0.25 hr, 10 mg/kg IP, CD-1 mice, individual animals, 10 mg/kg, read-out: Individual concentration) is reported as 283 nM and 93 nM and 173 nM. For the same molecule, the concentration at 0.5 h ([1]; 0.5 hr, 10 mg/kg IP, CD-1 mice, individual animals, 10 mg/kg, read-out: Individual concentration) was 652 nM and 939 nM, the concentration at 0.5 h ([1]; 1 hr, 10 mg/kg IP, CD-1 mice, individual animals, 10 mg/kg, read-out: Individual concentration) was 1010 nM and 147 nM and 358 nM and the concentration at 0.5 h ([1]; 2 hr, 10 mg/kg IP, CD-1 mice, individual animals, 10 mg/kg, read-out: Individual concentration) was 1480 nM and 2870 nM. The concentration at 0.5 h ([1]; 24 hr, 10 mg/kg IP, CD-1 mice, individual animals, 10 mg/kg, read-out: Individual concentration) was 505 nM and 617 nM, the concentration at 0.083 h ([1]; female, CD-1, mouse, ip, 10 mg/kg, 0.083 hr, 10 mg/kg IP, CD-1 mice, individual animals, read-out: Individual concentration) was 114 nM and the concentration at 0.083 h ([1]; female, CD-1, mouse, ip, 10 mg/kg, 0.083 hr, 10 mg/kg IP, CD-1 mice, n=3, read-out: Mean concentration) was 107 nM. It also gave a concentration at 0.25 h ([1]; female, CD-1, mouse, ip, 10 mg/kg, 0.25 hr, 10 mg/kg IP, CD-1 mice, n=3) of 183 nM, a concentration at 0.5 h ([1]; female, CD-1, mouse, ip, 10 mg/kg, 0.5 hr, 10 mg/kg IP, CD-1 mice, individual animals, read-out: Individual concentration) of 727 nM and a concentration at 0.5 h ([1]; female, CD-1, mouse, ip, 10 mg/kg, 0.5 hr, 10 mg/kg IP, CD-1 mice, n=3, read-out: Mean concentration) of 773 nM. The concentration at 1 h ([1]; female, CD-1, mouse, ip, 10 mg/kg, 1 hr, 10 mg/kg IP, CD-1 mice, n=3) was 505 nM, the concentration at 2 h ([1]; female, CD-1, mouse, ip, 10 mg/kg, 2 hr, 10 mg/kg IP, CD-1 mice, individual animals, read-out: Individual concentration) was 2240 nM and the concentration at 2 h ([1]; female, CD-1, mouse, ip, 10 mg/kg, 2 hr, 10 mg/kg IP, CD-1 mice, n=3, read-out: Mean concentration) was 2200 nM. The concentration at 4 h ([1]; female, CD-1, mouse, ip, 10 mg/kg, 10 mg/kg IP, CD-1 mice, individual animals, read-out: Individual concentration) was 3300 nM, the concentration at 4 h ([1]; female, CD-1, mouse, ip, 10 mg/kg, 10 mg/kg IP, CD-1 mice, n=3, read-out: Mean concentration) was 3240 nM and the concentration at 24 h ([1]; female, CD-1, mouse, ip, 10 mg/kg, 24 hr, 10 mg/kg IP, CD-1 mice, individual animals, read-out: Individual concentration) was 440 nM. The concentration at 24 h ([1]; female, CD-1, mouse, ip, 10 mg/kg, 24 hr, 10 mg/kg IP, CD-1 mice, n=3, read-out: Mean concentration) was 521 nM, the AUC(0-t) [1, 5] was 46.2 µM·h and the Cmax [1, 5] was 3240 nM. The Tmax [1, 5] was 4 h, the “Proliferation (confluency)” value (DU145 cells) was “displays efficacy against DU145 cancer cells” and the concentration at 8 h ([2]; 4 hr, individual animals, read-out: Individual concentration) was 3220 nM and 3210 nM. For the same molecule, the concentration at 8 h ([2]; 8 hr, individual animals, read-out: Individual concentration) was 2980 nM and 2610 nM, the concentration at 8 h ([2]; female, CD-1, mouse, ip, 10 mg/kg, 8 hr, individual animals, read-out: Individual concentration) was 2900 nM and the concentration at 8 h ([2]; female, CD-1, mouse, ip, 10 mg/kg, 8 hr, n=3, read-out: Mean concentration) was 2830 nM. For the same molecule, the “Xenograft tumor growth, combination with enzalutamide” value [3] was “synergizes with enzalutamide to inhibit growth of prostate cancer” and the “Tumor growth, combination with anti-PD1 antibody” value [4] was “synergizes with anti-PD1 antibody to inhibit growth of prostate cancer”.

For CNC(=O)c1ccc(N2C(=S)N(c3ccc(C#N)c(C(F)(F)F)c3)C(=O)C2(C)C)cc1F [enzalutamide, reference compound], the “Colony formation (crystal violet staining)” value (PC3 cells) was “did not differ significantly from control” and the “Proliferation (confluency)” value (DU145 cells) was “did not differ significantly from control”.
